# According to paper PMC11502334, “Fungal glyceraldehyde 3-phosphate dehydrogenase GpdC maintains glycolytic mechanism against reactive nitrogen stress-induced damage” (Frontiers in Microbiology, 2024):
# What was measured:
# rGpdA (GpdA) = target: T1, rGpdA (GpdA) (Aspergillus nidulans, UniProt P20445); experiment: residual GAPDH activity after preincubation; biotin-switch assay; format: biochemical; details: covalent (S-nitrosation of thiols); 0–1 mM, 1 h, 25°C, pH 7.5; activity measured with NAD+
# T1 construct: recombinant from cDNA, vector pET-21a, expressed in E. coli BL21 (DE3), HisTrap purified
# T1 sequence (P20445 whole entry): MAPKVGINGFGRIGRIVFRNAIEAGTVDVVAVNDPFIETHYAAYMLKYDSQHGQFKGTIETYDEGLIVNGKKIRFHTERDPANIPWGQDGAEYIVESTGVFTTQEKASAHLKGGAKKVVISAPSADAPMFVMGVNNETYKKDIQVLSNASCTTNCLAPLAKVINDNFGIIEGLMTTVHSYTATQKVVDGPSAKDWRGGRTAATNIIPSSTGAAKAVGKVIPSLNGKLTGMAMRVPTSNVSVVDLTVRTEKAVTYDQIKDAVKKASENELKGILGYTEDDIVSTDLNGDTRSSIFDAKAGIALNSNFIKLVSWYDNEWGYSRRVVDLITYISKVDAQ
# rGpdC (GpdC) = target: T2, rGpdC (GpdC) (Aspergillus nidulans, UniProt Q5BA47); experiment: as above; format: biochemical; details: covalent (S-nitrosation of thiols); 0–1 mM, 1 h, 25°C, pH 7.5; activity measured with NADP+
# T2 construct: gene ANIA_02583; recombinant from synthetic E. coli codon-optimized gene, vector pET-21a (Nde I/Hind III), expressed in E. coli BL21 (DE3), HisTrap purified
# T2 sequence (Q5BA47 1-354): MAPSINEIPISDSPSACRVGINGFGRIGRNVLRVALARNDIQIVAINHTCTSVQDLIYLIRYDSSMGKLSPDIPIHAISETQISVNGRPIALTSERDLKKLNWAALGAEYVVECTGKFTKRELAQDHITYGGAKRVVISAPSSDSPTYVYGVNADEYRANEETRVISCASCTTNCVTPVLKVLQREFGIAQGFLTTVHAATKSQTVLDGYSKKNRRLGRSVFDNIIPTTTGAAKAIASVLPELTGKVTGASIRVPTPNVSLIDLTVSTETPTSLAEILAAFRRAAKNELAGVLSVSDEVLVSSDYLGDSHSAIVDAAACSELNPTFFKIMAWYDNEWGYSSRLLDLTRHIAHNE
smiles,measurement,setting,value
N[C@@H](CCC(=O)N[C@@H](CSN=O)C(=O)NCC(=O)O)C(=O)O [GSNO],residual GAPDH activity after preincubation; biotin-switch assay,rGpdA (GpdA),GSNO modified the thiol residues of rGpdA and rGpdC to S-nitrosothiol and impaired enzyme activity
same,residual GAPDH activity after preincubation; biotin-switch assay,rGpdC (GpdC),GSNO modified the thiol residues of rGpdA and rGpdC to S-nitrosothiol and impaired enzyme activity
